10 compounds from US11352338B2, “Substituted isoindolinones” (BioTheryX, Inc., priority 2018, dated 2022) can be followed below.

A value given as a limit tells only on which side of the number the result lay.

Broadly, the inhibition is the share of the control response that was lost under treatment.

One assay concerns TNFα. In words: TNFα inhibition, LPS-induced PBMCs or CD14+ monocytes, Meso Scale assay. The class given is cell-based. Conditions: LPS 100 ng/mL 18-24 h, read-out: % Inhibition compared to DMSO, TNFα; for inhibition at 1 µM: tested at 1 μM; for inhibition at 10 µM: tested at 10 μM. The protocol:
(§1) Either frozen primary blood mononuclear cells (PBMCs) or frozen CD14+ mobilized peripheral blood monocytes were purchased from AllCells (PB003F, Normal Peripheral Blood MNC (Alameda, Calif.)). Cells were quick thawed, washed 1-time with RPMI-1640 (10% FBS/1% Pen-Strep) and plated in 96 well plates at 200,000 cells per well. Cells were pretreated with DMSO only or with the indicated compound for 1 h and then induced with 100 ng/mL lipopolysaccharide (LPS) for 18-24 h. The supernatant was analyzed for IL-1β, IL-6, and TNFα, using Meso Scale assay according to manufacturer's protocol. The negative control wells were treated with DMSO.
(§2) IL-1β, IL-6 and TNFα activities were tested at two different concentrations (1 μM and 10 μM) and the results are shown in Tables 2 and 3 respectively.

Another assay concerns IL-2. Briefly: IL-2 inhibition assay, anti-CD3 (OKT3) stimulated PBMCs, Mesoscale IL-2 analysis. The class given is cell-based, human. Particulars: for fold induction at 1 µM / fold induction at 10 µM: Homo sapiens, PBMC, PBMCs on anti-CD3, 24 h, fold difference from DMSO control, read-out: IL-2, % Induction compared to DMSO. The protocol:
For the IL-2 analysis, 96 well plates were precoated with 1 μg/mL anti-human CD3 antibody (OKT3, eBioscience Inc., San Diego, Calif.). After washing with PBS, the indicated compound was added (50 μL/well) followed by PBMCs diluted at 3-4 million cells/mL (150 μL/well). Plates were incubated for 24 h and the supernatants collected for Mesoscale IL-2 analysis. IL-2 activity is measured as fold difference from the DMSO control. […]
In Table 4, the fold-change values are reported as “A”, “B”, “C”, or “D”. “A” represents a fold-change value of equal to or less than 0.5 (value≤0.5); “B” represents a fold-change value of more than 0.5 and equal to or less than 1 (0.5<value≤1); “C” represents a fold-change value of more than 1 and less than 1.5 (1<value<1.5); and “D” represents a fold-change value of equal to or more than 1.5 (value≥1.5).

A further assay has as its target T1, Ikaros (Homo sapiens, UniProt Q13422+Q96SW2).
T1 construct: endogenous in cells; host or cells: MV-4-11
Briefly: Western blot, degradation of cellular Ikaros in MV-4-11 cells. It is filed as cell-based. Conditions: MV4-11, tested at 1 μM, 6-8 hours, read-out: % Degradation compared to DMSO, Ikaros. The protocol:
(§3) MV-4-11 cells were grown in RPMI 1640 media supplemented with 10% fetal bovine serum, streptomycin and penicillin.
(§4) Cells were cultured at approximately 10^6 cells per mL and incubated in DMSO or the indicated compounds for 6-8 hours. Whole cell extracts were prepared using RIPA lysis buffer according to manufacturer's protocol (Pierce). Briefly, 4×10^6 cells were washed once in PBS, the cell pellets were resuspended in RIPA lysis buffer and allowed to incubate for 15 minutes on ice. Cells debris was removed by centrifugation and the cleared whole cell lysates were transferred to new tubes for further analysis.
(§5) For Western blot analysis, whole cell protein extracts were separated on 4-12% SDS-polyacrylamide gels, transferred to nitrocellulose and probed with the indicated primary antibodies. Membranes were subsequently washed and probed with the appropriate IRDye secondary antibodies (LI-COR). The signal was detected using the Odyssey Imaging System (LI-COR).
(§6) The following antibodies were used in these studies: Anti-PDE6D antibody: Santa Cruz Biotechnology, sc-166854 (Dallas, Tex.); Anti-Ikaros: Abcam, ab191394 (Cambridge, Mass.); anti-CK1α antibody: Abcam, ab108296 (Cambridge, Mass.); β-Actin (8H10D10) mouse monoclonal antibody: Cell Signaling Technology, #3700 (Danvers, Mass.); IRDye 680RD Goat anti-rabbit antibody: LI-COR, 926-68071 (Lincoln, Nebr.); and IRDye 800CW Goat anti-mouse antibody: LI-COR, 926-32210 (Lincoln, Nebr.).
(§7) The % degradation values are reported as “A”, “B”, “C”, or “D.” “A” represents a % degradation value of less than 25% (value<25%); “B” represents a % degradation value of equal to or more than 25% and less than 50% (25%≤value<50%); “C” represents a % degradation value of equal to or more than 50% and less than 75% (50%≤value<75%); and “D” represents a % degradation value of equal to or more than 75% (value≥75%). […] was used as control.
In general terms: Immunoblotting shows a protein as a band on a membrane.

The next assay deals with T2, PDE6D (Homo sapiens, UniProt O43924+Q96SW2).
T2 construct: endogenous in cells; host or cells: MV-4-11
Briefly: Western blot, degradation of cellular PDE6D in MV-4-11 cells. The class given is cell-based. Particulars: for Dmax at 1 µM: MV4-11, tested at 1 μM, MV-4-11 cells, 6-8 hours, read-out: % Degradation compared to DMSO, PDE6D. Here is the method:
as §3, §4, §5, §6, §7

The next assay deals with IL-1β. In words: IL-1β inhibition, LPS-induced PBMCs or CD14+ monocytes, Meso Scale assay. It is filed as cell-based. Conditions: LPS 100 ng/mL 18-24 h, read-out: % Inhibition compared to DMSO, IL-1β; for inhibition at 1 µM: tested at 1 μM; for inhibition at 10 µM: tested at 10 μM. Here is the method: as §1, §2
The next assay deals with IL-6. Briefly: IL-6 inhibition, LPS-induced PBMCs or CD14+ monocytes, Meso Scale assay. It is filed as cell-based. Particulars: LPS 100 ng/mL 18-24 h, read-out: % Inhibition compared to DMSO, IL-6; for inhibition at 1 µM: tested at 1 μM; for inhibition at 10 µM: tested at 10 μM. The protocol:
as §1, §2

A further assay has as its target T3, CK1α (Homo sapiens, UniProt P48729+Q96SW2).
T3 construct: endogenous in cells; host or cells: MV-4-11
Briefly: Western blot, degradation of cellular CK1α in MV-4-11 cells. The class given is cell-based. Conditions: MV4-11, tested at 1 μM, 6-8 hours, read-out: % Degradation compared to DMSO, CK1α. Here is the method: as §3, §4, §5, §6, §7

T2 sequence (O43924 whole entry): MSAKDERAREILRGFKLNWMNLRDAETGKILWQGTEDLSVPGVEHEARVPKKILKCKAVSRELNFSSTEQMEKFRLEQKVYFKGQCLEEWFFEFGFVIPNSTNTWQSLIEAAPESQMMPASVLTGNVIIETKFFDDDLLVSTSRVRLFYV
T2 sequence (Q96SW2 whole entry): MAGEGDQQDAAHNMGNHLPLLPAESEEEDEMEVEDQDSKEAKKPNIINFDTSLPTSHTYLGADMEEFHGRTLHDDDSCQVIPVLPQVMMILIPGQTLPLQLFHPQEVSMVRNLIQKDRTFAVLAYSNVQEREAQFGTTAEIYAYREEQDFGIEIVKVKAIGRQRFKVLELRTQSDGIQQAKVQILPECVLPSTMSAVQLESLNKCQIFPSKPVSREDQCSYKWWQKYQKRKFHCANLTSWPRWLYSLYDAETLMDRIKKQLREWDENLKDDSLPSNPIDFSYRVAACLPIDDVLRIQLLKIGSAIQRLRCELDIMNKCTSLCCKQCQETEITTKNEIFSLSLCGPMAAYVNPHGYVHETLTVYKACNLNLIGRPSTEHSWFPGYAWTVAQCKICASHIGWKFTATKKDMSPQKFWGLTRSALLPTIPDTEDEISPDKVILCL
T2 sequence (Q16531 whole entry partner): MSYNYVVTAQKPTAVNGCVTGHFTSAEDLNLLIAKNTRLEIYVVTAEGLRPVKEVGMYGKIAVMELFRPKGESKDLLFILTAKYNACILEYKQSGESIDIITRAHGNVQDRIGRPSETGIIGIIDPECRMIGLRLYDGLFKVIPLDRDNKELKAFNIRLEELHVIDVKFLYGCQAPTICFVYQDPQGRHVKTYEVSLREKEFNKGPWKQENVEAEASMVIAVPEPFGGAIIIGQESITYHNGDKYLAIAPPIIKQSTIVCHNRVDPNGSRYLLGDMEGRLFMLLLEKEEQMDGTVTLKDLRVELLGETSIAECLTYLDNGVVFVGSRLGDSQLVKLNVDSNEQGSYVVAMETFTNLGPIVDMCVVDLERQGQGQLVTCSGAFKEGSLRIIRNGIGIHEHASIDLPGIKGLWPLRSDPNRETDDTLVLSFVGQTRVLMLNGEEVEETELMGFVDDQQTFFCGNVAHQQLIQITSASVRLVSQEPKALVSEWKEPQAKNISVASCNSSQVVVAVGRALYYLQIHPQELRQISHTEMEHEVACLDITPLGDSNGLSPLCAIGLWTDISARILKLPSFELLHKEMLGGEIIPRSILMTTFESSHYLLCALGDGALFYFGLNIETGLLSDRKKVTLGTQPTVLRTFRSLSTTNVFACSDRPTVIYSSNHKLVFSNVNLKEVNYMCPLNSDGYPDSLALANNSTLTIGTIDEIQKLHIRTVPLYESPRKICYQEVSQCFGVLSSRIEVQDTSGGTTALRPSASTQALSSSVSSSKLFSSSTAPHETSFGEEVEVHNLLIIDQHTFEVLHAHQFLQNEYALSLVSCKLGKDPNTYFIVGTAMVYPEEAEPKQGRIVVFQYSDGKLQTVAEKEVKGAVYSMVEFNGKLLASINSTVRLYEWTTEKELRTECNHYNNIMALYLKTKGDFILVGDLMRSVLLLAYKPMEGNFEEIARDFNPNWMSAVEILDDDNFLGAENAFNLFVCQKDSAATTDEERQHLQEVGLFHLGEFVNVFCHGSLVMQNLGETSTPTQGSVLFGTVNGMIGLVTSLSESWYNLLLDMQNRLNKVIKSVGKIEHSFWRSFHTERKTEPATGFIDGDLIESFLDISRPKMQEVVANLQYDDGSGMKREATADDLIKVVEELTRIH
T1 sequence (Q13422 whole entry): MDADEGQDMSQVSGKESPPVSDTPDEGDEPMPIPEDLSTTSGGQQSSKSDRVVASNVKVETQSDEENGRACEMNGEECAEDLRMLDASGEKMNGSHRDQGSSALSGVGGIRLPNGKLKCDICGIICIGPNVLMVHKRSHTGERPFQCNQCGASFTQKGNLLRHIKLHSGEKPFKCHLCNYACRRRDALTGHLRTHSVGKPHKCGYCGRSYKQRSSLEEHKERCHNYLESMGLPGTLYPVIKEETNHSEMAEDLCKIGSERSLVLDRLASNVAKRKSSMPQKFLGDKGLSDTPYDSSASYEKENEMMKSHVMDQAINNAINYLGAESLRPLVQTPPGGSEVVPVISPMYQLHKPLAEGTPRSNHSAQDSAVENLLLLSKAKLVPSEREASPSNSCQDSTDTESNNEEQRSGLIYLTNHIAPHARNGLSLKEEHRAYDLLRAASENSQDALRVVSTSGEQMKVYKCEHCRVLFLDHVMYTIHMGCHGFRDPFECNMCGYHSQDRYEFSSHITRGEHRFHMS
T1 sequence (Q96SW2 whole entry): as the sequence (Q96SW2 whole entry) above
T1 sequence (Q16531 whole entry partner): as the sequence (Q16531 whole entry partner) above
T3 sequence (P48729 whole entry): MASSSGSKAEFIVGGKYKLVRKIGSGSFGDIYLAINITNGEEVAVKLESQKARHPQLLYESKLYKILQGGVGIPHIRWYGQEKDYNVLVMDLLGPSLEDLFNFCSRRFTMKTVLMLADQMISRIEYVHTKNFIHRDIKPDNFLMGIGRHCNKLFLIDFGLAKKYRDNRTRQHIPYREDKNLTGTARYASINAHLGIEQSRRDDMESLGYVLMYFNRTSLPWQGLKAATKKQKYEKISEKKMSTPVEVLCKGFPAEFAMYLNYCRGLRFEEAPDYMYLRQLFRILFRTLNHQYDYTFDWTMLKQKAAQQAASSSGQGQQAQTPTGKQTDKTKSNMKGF
T3 sequence (Q96SW2 whole entry): as the sequence (Q96SW2 whole entry) above
T3 sequence (Q16531 whole entry partner): as the sequence (Q16531 whole entry partner) above

In the case of `CC1(N2Cc3c(cc(F)cc3C3CCCC3)C2=O)CCC(=O)NC1=O` (stereo not shown) [Compound 4, 3-(4-cyclopentyl-6-fluoro-1-oxoisoindolin-2-yl)-3-methylpiperidine-2,6-dione], the inhibition at 1 µM in the assay with TNFα is 25 to 50%; with IL-1β, < 10%; in the assay on IL-6 it was < 10%. Besides, the inhibition at 10 µM with TNFα was > 50%; with IL-1β, 10 to 25%; with IL-6, < 10%. Further, in the assay with IL-2, the fold induction at 1 µM was 0.5 to 1. Also, the fold induction at 10 µM with IL-2 (10 μM) fell in the range of 0.5 to 1. The Dmax at 1 µM on Ikaros, on PDE6D and at CK1α was < 25% each time.
As for `C[C@@H](c1cc(F)cc2c1CN(C1CCC(=O)NC1=O)C2=O)C(F)(F)F` (stereo partly shown) [Compound 22], the inhibition at 1 µM in the assay on TNFα, in the assay with IL-1β and with IL-6 was < 10% throughout. The values for the inhibition at 10 µM in the assay on TNFα, in the assay with IL-1β and in the assay with IL-6 were 25 to 50%, 10 to 25% and 10 to 25%, respectively. For the same compound, the “effect on IL-2 (in words)” value in the assay with IL-2 (10 μM) is “strong inhibition of IL-2 (downregulation)”. Besides, the “IL-2, % Induction compared to DMSO” value with IL-2 (10 μM, comparison with comparative compound B) was “A (a fold-change value of equal to or less than 0.5 (value≤0.5))”. Also, the fold induction at 1 µM with IL-2 was ≤ 0.5. Besides, in the assay on IL-2 (10 μM), the fold induction at 10 µM was ≤ 0.5. For the same compound, the Dmax at 1 µM on Ikaros was < 25%; at PDE6D, ≥ 75%; on CK1α, ≥ 75%. The “% Degradation of PDE6D” value on PDE6D (1 μM, comparison with comparative compound A) was “D (a % degradation value of equal to or more than 75% (value≥75%))”.
Turning to `CC1(C)CCC(c2cc(F)cc3c2CN(C2CCC(=O)NC2=O)C3=O)CC1` (stereo not shown) [Compound 7], the inhibition at 1 µM was < 10% with TNFα, < 10% in the assay with IL-1β and 10 to 25% in the assay on IL-6. The values for the inhibition at 10 µM with TNFα, in the assay on IL-1β and in the assay on IL-6 were 10 to 25%, < 10% and < 10%, respectively. For the same compound, the fold induction at 1 µM with IL-2 was 1 to 1.5. Moreover, in the assay on IL-2 (10 μM), the fold induction at 10 µM lay within 0.5 to 1. The Dmax at 1 µM was < 25% at Ikaros, ≥ 75% at PDE6D and < 25% on CK1α.
As to `O=C1CCC(N2Cc3c(cccc3C3CCCC3)C2=O)C(=O)N1` (stereo not shown) [Compound 2], the inhibition at 1 µM in the assay on TNFα is < 10%; in the assay on IL-1β it was < 10%; with IL-6, 10 to 25%. Also, the inhibition at 10 µM with TNFα, in the assay on IL-1β and with IL-6 was 10 to 25% each time. In addition, in the assay on IL-2, the fold induction at 1 µM is 0.5 to 1. Also, the fold induction at 10 µM with IL-2 (10 μM) was in the range of 0.5 to 1. The Dmax at 1 µM on Ikaros is < 25%; on PDE6D, ≥ 75%; at CK1α, 25 to 50%.
For `O=C1CCC(N2Cc3c(C4CCCC4)ccc(F)c3C2=O)C(=O)N1` (stereo not shown) [Compound 27], the results for the inhibition at 1 µM with TNFα, with IL-1β and in the assay on IL-6 were 10 to 25%, < 10% and 10 to 25%, respectively. Besides, the inhibition at 10 µM is 25 to 50% in the assay on TNFα, < 10% in the assay with IL-1β and < 10% in the assay with IL-6. In addition, the fold induction at 1 µM with IL-2 lay in the range of 0.5 to 1. Further, the fold induction at 10 µM in the assay on IL-2 (10 μM) was in the range of 0.5 to 1. Also, the Dmax at 1 µM at Ikaros, at PDE6D and at CK1α was < 25% each time.
With `CCC(C)c1cc(F)cc2c1CN(C1CCC(=O)NC1=O)C2=O` (stereo not shown) [Compound 33, 3-(4-(sec-butyl)-6-fluoro-1-oxoisoindolin-2-yl)piperidine-2,6-dione], the inhibition at 1 µM in the assay with TNFα was 25 to 50%; in the assay on IL-1β, < 10%; in the assay on IL-6, < 10%. Moreover, the fold induction at 1 µM in the assay on IL-2 was ≤ 0.5. The results for the Dmax at 1 µM on Ikaros, at PDE6D and on CK1α were < 25%, ≥ 75% and ≥ 75%, respectively.
For `O=C1CCC(N2Cc3c(cc(F)cc3C3CCCCC3)C2=O)C(=O)N1` (stereo not shown) [Compound 3], the inhibition at 1 µM in the assay on TNFα, in the assay on IL-1β and in the assay on IL-6 was < 10% each time. Besides, the inhibition at 10 µM with TNFα, with IL-1β and in the assay on IL-6 was < 10% each time. The fold induction at 1 µM in the assay with IL-2 was ≤ 0.5. Also, the fold induction at 10 µM with IL-2 (10 μM) is ≤ 0.5. For the same compound, the Dmax at 1 µM on Ikaros is 25 to 50%; at PDE6D, ≥ 75%; at CK1α, 50 to 75%.
As to `O=C1CCC(N2Cc3c(cc(C(F)(F)F)cc3C3CCCC3)C2=O)C(=O)N1` (stereo not shown) [Compound 29], the figures for the inhibition at 1 µM in the assay on TNFα, in the assay on IL-1β and with IL-6 were < 10%, < 10% and 10 to 25%, respectively. Moreover, the inhibition at 10 µM was 10 to 25% in the assay on TNFα, < 10% with IL-1β and < 10% in the assay with IL-6. Further, the fold induction at 1 µM in the assay with IL-2 fell in the range of 0.5 to 1. Besides, in the assay on IL-2 (10 μM), the fold induction at 10 µM lay in the range of 0.5 to 1. Moreover, the Dmax at 1 µM on Ikaros is 25 to 50%; at PDE6D it was < 25%; at CK1α, < 25%.
Turning to `O=C1CCC(N2Cc3c(cc(F)cc3C3CCCCCC3)C2=O)C(=O)N1` (stereo not shown) [Compound 15], the inhibition at 1 µM with TNFα, with IL-1β and in the assay on IL-6 was < 10% each time. In addition, the inhibition at 10 µM with TNFα, with IL-1β and in the assay on IL-6 was < 10% throughout. For the same compound, the fold induction at 1 µM in the assay on IL-2 lay in the range of 0.5 to 1. In addition, the fold induction at 10 µM in the assay with IL-2 (10 μM) is ≤ 0.5. Besides, the Dmax at 1 µM at Ikaros is 25 to 50%; at PDE6D, ≥ 75%; on CK1α, 50 to 75%.
On to `O=C1CCC(N2Cc3c(cc(F)cc3C3=CCC(F)(F)CC3)C2=O)C(=O)N1` (stereo not shown) [Compound 9], for which the values for the inhibition at 1 µM in the assay with TNFα, in the assay on IL-1β and in the assay with IL-6 were < 10%, < 10% and 10 to 25%, respectively. Moreover, the inhibition at 10 µM in the assay on TNFα is 25 to 50%; with IL-1β, < 10%; in the assay on IL-6, 10 to 25%. Further, the fold induction at 1 µM with IL-2 is 0.5 to 1. Moreover, in the assay with IL-2 (10 μM), the fold induction at 10 µM was in the range of 0.5 to 1. In addition, the Dmax at 1 µM at Ikaros is < 25%; on PDE6D, ≥ 75%; on CK1α, < 25%.
